Reference: paper PMC4911353, “Pharmacologic Inhibition of Host Phosphodiesterase-4 Improves Isoniazid-Mediated Clearance of Mycobacterium tuberculosis” (Frontiers in Immunology, 2016)

Tested on: Mtb-infected mouse lungs
Assay: Genome-wide lung transcriptome (microarray, IPA network/GO analysis) of Mtb-infected mice
Type: in vivo

## CCOc1cc([C@@H](CS(C)(=O)=O)N2Cc3cccc(NC(=O)C4CC4)c3C2=O)ccc1OC [CC-11050, N-[2-[(1S)-1-(3-ethoxy-4-methoxyphenyl)-2-(methylsulfonyl)ethyl]-2,3-dihydro-3-oxo-1H-isoindol-4-yl]-(9Cl) cyclopropanecarboxamide]
Lung inflammation network
  TIMP1 expression: 0
  TLR2 expression: 0
  TLR4 expression: 0
  TNFAIP8L2 expression: 0
  TNFRSF1B expression: 0
  TNFRSF4 expression: 0
  TNFRSF9 expression: 0
  TNFRSF25 expression: 0
  TNFSF15 expression: 0
  TOP2A expression: 0
  TRAF3IP2 expression: 0
  TRAF6 expression: 0
  TRPM2 expression: 0
  mir-15 expression: -1.286
  mir-19 expression: 0
  mir-25 expression: 0
  mir-27 expression: 0
  mir-30 expression: 0
  mir-155 expression: 0
  mir-181 expression: 0
TNF-a regulon network
  ABCC1 expression: 0
  ABCC3 expression: 0
  ABCD2 expression: 0
  ABCG2 expression: 0
  ABR expression: 0
  ABTB2 expression: 0
  ACADM expression: 0
  ACE expression: 1.167
  ACOX1 expression: 0
  ACSL1 expression: 0
  ADAM8 expression: 0
  ADAMTS5 expression: 0
  ADIPOQ expression: 0
  ADM expression: 0
  ADRB3 expression: 0
  AEBP1 expression: 0
  AGT expression: 0
  AK2 expression: 0
  ALAD expression: 0
  ALDH3A1 expression: 0
  ALOX5 expression: 0
  ANGPT2 expression: 0
  ANGPTL4 expression: 1.8298
  ANXA11 expression: 0
  AOC3 expression: 0
  APLN expression: 0
  APOBEC3B expression: 0
  APOC2 expression: 0
  AQP1 expression: 0
  AQP7 expression: 0
  ARF4 expression: 1.158
  ASGR1 expression: 0
  ASS1 expression: 0
  AVPR1A expression: 0
  Abcb1b expression: 0
  Aldh1a7 expression: 0
  B2M expression: 0
  B4GALT1 expression: 0
  BCKDHA expression: 0
  BCKDHB expression: 0
  BCL2A1 expression: 0
  BCL2L13 expression: 1.114
  BCL3 expression: 0
  BGN expression: 0
  BHLHE40 expression: 1.386
  BIRC2 expression: 0
  BIRC3 expression: 0
  BIRC5 expression: 0
  BMP4 expression: 0
  BMPR1A expression: 0
  BST2 expression: 0
  BTG1 expression: 0
  BUB1B expression: 0
  C3 expression: 0
  C10orf10 expression: 0
  C11orf82 expression: 0
  C21orf33 expression: 0
  CASP4 expression: 0
  CASP6 expression: 0
  CASP7 expression: 0
  CAT expression: 0
  CCL1 expression: 0
  CCL4 expression: 0
  CCL7 expression: 0
  CCL19 expression: 0
  CCL20 expression: 0
  CCR8 expression: 0
  CD3E expression: 0
  CD5 expression: 0
  CD28 expression: 0
  CD40 expression: 0
  CD69 expression: 0
  CD80 expression: 0
  CD82 expression: 0
  CD83 expression: 0
  CD247 expression: 0
  CD274 expression: 0
  CDC25C expression: 0
  CDH2 expression: 0
  CDH13 expression: 0
  CDKN2C expression: 0
  CDO1 expression: 1.459
  CEBPD expression: 0
  CELF1 expression: 0
  CFB expression: 0
  CFD expression: 0
  CFLAR expression: 0
  CH25H expression: 0
  CHST2 expression: 0
  CHST4 expression: 0
  CIB2 expression: 0
  CIDEC expression: 0
  CLDN11 expression: 0
  CLEC4E expression: 0
  CLEC5A expression: 0
  COL1A2 expression: 0
  COTL1 expression: 0
  CPT1A expression: 1.211
  CPT2 expression: 0
  CRADD expression: 0
  CREM expression: 0
  CSF1R expression: 0
  CSF1 expression: 0
  CST7 expression: 0
  CTNNB1 expression: 0
  CTSB expression: 0
  CTSC expression: 0
  CTSF expression: 0
  CTSZ expression: 0
  CX3CR1 expression: 0
  CXCL2 expression: 0
  CXCL6 expression: 0
  CXCL9 expression: 0
  CXCL10 expression: 0
  CXCL11 expression: 0
  CXCL13 expression: 0
  CXCL16 expression: 0
  CXCR2 expression: 0
  CYBA expression: 0
  CYP1A1 expression: 0
  CYP2E1 expression: 0
  CYP7B1 expression: 0
  CYTH3 expression: 0
  CYTIP expression: 0
  DAG1 expression: 0
  DAXX expression: 0
  DBI expression: 0
  DBT expression: 0
  DCN expression: 0
  DDX58 expression: 0
  DENND4A expression: -1.412
  DHRS3 expression: 0
  DNMT1 expression: 0
  DPP4 expression: 0
  DUSP2 expression: 0
  DUSP5 expression: 0
  DUSP14 expression: 0
  EBI3 expression: 0
  ECH1 expression: 1.206
  EDN1 expression: 0
  EFNA1 expression: 0
  EFNB2 expression: 0
  EGFR expression: 1.258
  EGR2 expression: 0
  EIF2AK2 expression: 0
  EMP1 expression: 1.328
  ENG expression: 0
  ENPP3 expression: 0
